# From patent US20250255293A1, “TISSUE DECONTAMINATION AND PRESERVATION SYSTEM” (priority 2024, published 2025)
# Several values for one entry are separate records, joined by “and”; a condition that tells them apart may be missing. Identical values can stand only once. Like-named read-outs stand apart in the source and are kept apart here.
# Experiments:
# [1] = system: chondrocytes of osteoarticular fracture fragments; assay: Viable chondrocyte density, live-dead calcein AM / ethidium homodimer assay (Example 3); format: cell-based, canine; conditions: for Viable Chondrocyte Density, mean (SD): 20 min immersion (10% povidone-iodine or 0.002% chlorhexidine)
# Text: (§1) Purpose-bred hounds (n=16) were humanely euthanized, immediately after which an open articular fracture in both elbows (n=32) was created using a captive bolt pistol. Each dog was positioned in sternal recumbency with one forelimb extended and secured in a custom made positioning apparatus. Fur was not clipped and no aseptic preparation or techniques were implemented. A captive bolt stunner pistol with a 4.75-inch penetrating pin and 1.25 grain cartridge was centered on the cranial (anterior) aspect of the distal humerus, immediately proximal to the joint. With firm pressure against the secured elbow, the pistol was discharged, and the procedure was repeated for the contralateral elbow. Soft tissues were removed aseptically and the distal humerus (n=32), proximal radius (n=32), and trochlea (n=32) were osteotomized and processed under operating room conditions in 1 of 3 ways: 1) Betadine ([…]): 0.9% saline irrigation (1 L), 10% povidone-iodine solution immersion (20 min), saline irrigation; 2) Chlorhexidine (n=42): saline irrigation, 0.002% chlorhexidine solution immersion (20 min), saline irrigation; 3) Control (n=12): untreated. Each osteoarticular fragment was placed in 200 ml of MOPS® solution (500 ml DMEM, 5 ml ITS (insulin (10 mg/L), transferrin 55 mg/L), selenium (6.7 μg/L)), 5 ml total penicillin (100 U/ml), streptomycin (100 μg/ml), amphotericin B (2.5 μg/ml), 5 ml L-glutamine (2 mM), 5 ml non-essential amino acids (0.1 mM), 1 ml ascorbic acid (50 ng/ml), and 5.46 ml dexamethasone (0.1 μM)) in a sterile container and stored under standard room temperature and humidity conditions for 7 (n=46) or 14 (n=48) days. At each time point, viable chondrocyte density (VCD) and quantitative microbial culture assessments were assayed, yielding a count of colony forming units (CFU) per specimen.
# Viable chondrocyte density (VCD) was evaluated using a live-dead calcein AM (live stain) and ethidium homodimer (dead stain) assay, as previously described (Cook, et al., Am. J. Sports Med. 44:1260-1268, 2016). A minimum of two images from each osteochondral fragment were assessed via fluorescent microscopy. The VCD was determined by counting the number of viable cells in each image and dividing this by the area of the tissue in the image (#of viable cells/area of cartilage tissue mm^2). This methodology was aimed at providing an objective and quantifiable assessment of cell viability post-treatment.
# (§2) Univariate comparison of VCD and CFU were performed via Kruskal-Wallis and Chi-squared test. Multivariate linear regression was used, controlling for osteotomy site and storage time, to determine the correlation between processing method and VCD or CFU. Data manipulation and statistical analysis were performed using R software.
# [2] = system: canines with grade 3 open femoral bicondylar fracture; assay: Functional outcomes after reimplantation of decontaminated fracture fragment (Example 4); format: in vivo, canine
# Experimental: (§3) A grade 3 open femoral bicondylar fracture was created in 3 canines. A lateral parapatellar approach was used, the fragment was cultured and retrieved. The fragment was irrigated, treated with 0.002% chlorhexidine for 20 minutes, irrigated, and stored in MOPS® for 7 days, after which the fragment was reimplanted, and both condyles were repaired with 3.5 mm cannulated lag screws. After 3 months, quantitative bacterial cultures (CFU/g; Table 2) and functional outcomes (Table 3) were measured.
# [3] = system: bacteria (quantitative bacterial cultures); assay: Quantitative bacterial cultures, in vivo reimplantation of decontaminated fracture fragment (Example 4); set-up: species or system canine; conditions: individual dogs
# Experimental: as §3
# human chondrocyte = conditions: cited from earlier work
# [4] = system: contaminated osteochondral tissues; conditions: 10% povidone-iodine or 0.4% chlorhexidine, 20-minute immersion; cited from earlier work
# [5] = system: microbial contamination of osteoarticular fracture fragments; assay: Quantitative microbial culture of osteoarticular fragments, colony forming units per specimen (Example 3); format: cell-based; conditions: for Colony Forming Units, mean (SD): 20 min immersion (10% povidone-iodine or 0.002% chlorhexidine)
# Text: as §1
# In parallel, quantitative microbial cultures were performed on the humerus, radial head, and trochlea of each dog at either 7 or 14 days. Each tissue intended for culture was placed into 18 ml thioglycollate broth and vortexed for 30 seconds. One milliliter of the broth was immediately extracted for the 1:1 dilution and placed in an Eppendorf tube. Serial 1:10 dilutions were made from that subsample and plated within an hour. The plating process comprised 10 μl of each dilution streaked semi-quantitatively onto tryptic soy agar with 5% sheep blood and reduced blood agar. All dilutions were incubated for 72 hours before counting. Additional incubation in the remaining 17 ml thioglycollate for 48 hours was performed, and 10 μl of thioglycollate was re-streaked at that time and incubated for another 72 hours. Organisms were identified via MALDI-TOF or 16S sequencing.
# as §2
# [6] = saline irrigation, 0.002% chlorhexidine immersion, room temperature storage in MOPS
# [7] = storage time 7 days in MOPS at room temperature
# [8] = storage time 14 days in MOPS at room temperature
# [9] = 3 months after reimplantation of fragment treated with 0.002% chlorhexidine and stored in MOPS 7 days
smiles,measurement,setting,value
"[H]/N=C(\N/C(=N/[H])NCCCCCCNC(=N)NC(=N)Nc1ccc(Cl)cc1)Nc1ccc(Cl)cc1 [Chlorhexidine, chlorhexidine gluconate]",mean VCD,[1]; at 7 days,772
same,mean VCD,[1]; at 14 days,710
same,increase of VCD relative to control treatment,"[1]; multivariate linear regression, controlling for storage timing and osteotomy site",377 VCD
same,maintenance of chondrocyte viability (in words),[1]; [6],maintaining chondrocyte viability for up to 14 days
same,"Viable Chondrocyte Density, mean (SD)",[1]; [7],772.3 (257.0) mm^−2
same,"Viable Chondrocyte Density, mean (SD)",[1]; [8],709.5 (338.0) mm^−2
same,Function (VAS) Post,[2]; [9],9 and 8.8 and 9.3
same,ROM Post,[2]; [9],101 degrees and 97 degrees and 104 degrees
same,Pain (VAS) Post,"[2]; Post, individual dogs",0
same,Pain (VAS) Pre,"[2]; Pre, individual dogs",1.2 and 1.9 and 0.6
same,Function (VAS) Pre,"[2]; baseline, individual dogs",10
same,ROM Pre,"[2]; baseline, individual dogs",108 degrees and 107 degrees and 109 degrees
same,"quantitative bacterial culture, Endpoint, Fracture Fragment",[3]; 3 months after reimplantation,0 CFU/g
same,"quantitative bacterial culture, Endpoint, Synovium",[3]; 3 months after reimplantation,0 CFU/g
same,"quantitative bacterial culture, Reimplantation, MOPS Media",[3]; after 0.002% chlorhexidine 20 min and 7 days storage in MOPS,0 CFU/g
same,"quantitative bacterial culture, Initial Trauma, Fracture Fragment","[3]; baseline, before 0.002% chlorhexidine treatment",355 CFU/g and 0 CFU/g and 41 CFU/g
same,"quantitative bacterial culture, Initial Trauma, Synovium","[3]; baseline, before treatment",0 CFU/g (2×) and 119 CFU/g
same,chondrocyte viability after treatment,"human chondrocyte; 0.002% chlorhexidine gluconate, 7 days in tissue culture, listed as Chlorhexidine Gluconate",preserving chondrocyte viability for up to 7 days
same,chondrocyte viability after treatment,"human chondrocyte; 0.002% chlorhexidine gluconate, 7 days in tissue culture, listed as chlorhexidine gluconate",maintain chondrocyte viability at day-0 level for 7 days
same,chondrocyte viability after treatment,human chondrocyte; higher concentrations of CHG than 0.002%,significant chondrocyte viability loss within 24 hours
same,decontamination of contaminated osteochondral tissues,[4],effective at fully decontaminating
same,mean CFU,[5]; at 7 days,0.4
same,mean CFU,[5]; at 14 days,7.9
same,decrease of CFU relative to control treatment,"[5]; multivariate linear regression, controlling for osteotomy site and storage timing",15.8×10^6 CFU
same,decontamination of osteoarticular fracture fragments (in words),[5]; [6],effective for decontaminating osteoarticular fracture fragments
same,"Colony Forming Units, mean (SD)",[5]; [7],0.4 (1.8) 10^6 per specimen
same,"Colony Forming Units, mean (SD)",[5]; [8],7.9 (14.2) 10^6 per specimen
